The source of these data is patent US7144586B2, “Compositions for preventing hormone induced adverse effects” (Lycored Natural Products Industries Ltd., priority 2000, dated 2006).

Entries after “also recorded” stand apart in the source; their conditions may differ.

The subject of assay [1] is MCF-7 mammary cancer cells (estrogen dependent). Put plainly: MCF-7 mammary cancer cell proliferation assay ([3H]thymidine incorporation). To be noted: for phytoestrogen-induced cell proliferation: genistein (4 (M)). The format is cell-based, human. On the procedure: (§1) Tetrahydrofuran (THF) containing 0.25% butylated hydroxytoluene was added to purified carotenoids as an antioxidant. Carotenoids were dissolved in THF at a concentration of 2 mMM and stored at −70 C. Immediately before use, stock solutions were thawed and added to the cell culture medium under nitrogen, followed by vigorous stirring. Precipitates formed were removed by filtration through Millex-HV filter (Millipore). Final carotenoid concentrations in the medium were determined by spectrophotometry after extraction in 2-propanol and n-hexane:dichloronomethane, as in U.S. Pat. No. 5,827,900.
(§2) The human endometrial cancer (estrogen dependent) cell line ECC-1 was developed by Dr. P. G. Satyaswaroop, Pennslyvania State University, Pennsylvania, U.S.A, and generously provided to us by Dr. R. Oregan, Northwestern University, Chicago, Ill., U.S.A. Human mammary cancer cell lines MCF-7 (estrogen dependent) and MDA-231 (hormone independent) were obtained from the American Type Culture Collection (Rockville, Md.).
(§3) Cells were cultured in DMEMM containing penicillin (100 U/ml), streptomycin (0.1 mg/ml)) nystatin (12.5 (g/ml), insulin (0.6 (g/ml), and 10% FCS. Cells were stripped of endogenous steroids according to the procedure of Vignon et al. (1987, Biochem. Biophys. Res. Comm., 146:1502–8) by successive passages in medium without phenol red containing 10% and then 3% of charcoal-stripped FCS. Cells were seeded into 96 multiwell plates (5,000 cells per well) in DMEMM containing 3% of charcoal-stripped FCS. After one day the medium was changed to one containing the solubilized carotenoid or THF alone. The medium was changed daily to ensure a continuous supply of carotenoid.
(§4) After incubation, the number of cells and the rate of cell proliferation were estimated by the incorporation of [^3H]thymidine incorporation into cellular DNA, as described in U.S. Pat. No. 5,827,900. Cell growth was also measured by direct cell counting with a Coulter counter after trypsinization and dilution in Isotone-II (Coulter Electronics, Luton, England). A good correlation was found between the two methods.
(§5) The comparative effects of estradiol and genistein supplementation on the proliferation of the hormone-dependent cell lines MCF-7 mammary cancer and ECC-1 endometrial cancer were examined (FIG. 2).
(§6) Cell cultures stimulated either by genistein or estradiol, as described above, were further supplemented with lycopene and assayed for cell proliferation after three days in culture.
Thus genistein not only stimulates hormone-dependent cancer cell proliferation, but IGF-I as well as other growth factors further augment this effect.
Cell cultures supplemented as above were further supplemented with lycopene at 3 to 5 μM concentration.

Assay [2] deals with ECC-1 endometrial cancer cells. The assay can be described thus: ECC-1 endometrial cancer cell proliferation assay ([3H]thymidine incorporation). The format is cell-based, human. The settings on record: for genistein-induced cell proliferation: stimulated by genistein at 1 MM (FIG. 4); for cell proliferation ([3H]thymidine incorporation into DNA): 0.4 and 4 μM, after three days (FIG. 1, panel A); for inhibition of cell proliferation: higher, non-physiological concentrations (10 μM), after three days in culture (FIG. 1, panel A); for effect on endometrial cancer cell growth over the concentration range: increasing concentrations, low to high. As to the method: as §1, §2, §3, §4
ECC-1 cells were incubated with increasing concentrations of the isoflavones genistein and daidzein, the two primary isoflavones in soy products, and with soy extract. Cell proliferation after three days was measured by [^3H]thymidine incorporation into DNA (FIG. 1, panel A).
ECC-1 cells were also incubated with a single high concentration (40 μM) of each of genistein, daidzein and soy extract. Cell proliferation was assayed daily over the course of three days.
as §5, §6
The ECC-1 hormone-dependent cell line was stimulated either by estradiol at 10 nM (FIG. 4, left panel) or by genistein at 1 MM (FIG. 4, panel B) and test cultures were additionally supplemented with various carotenoids.
The hormone-dependent endometrial cancer cell line ECC-1 was stimulated either by estradiol at 10 nM (FIG. 5, left panel) or by genistein at 1 μM (FIG. 5, right panel) and test cultures were additionally supplemented with various concentrations of lycopene. […] The lowest lycopene concentration tested (0.9 μM) is in the physiological range found in human serum.
On the technique in general: Uptake of a labelled nucleoside into DNA is a usual measure of proliferation.

For assay [3], the system named is estrogen receptor-positive human breast cancer cell lines. To be noted: approximately 0.1 to 2–3 μM; cited from earlier work.
For assay [4], the system named is estrogen receptor negative human breast cancer cell lines. To be noted: approximately 0.1 to 2–3 μM; cited from earlier work.
Assay [5] deals with MDA-231 mammary cancer cells (hormone independent). Put plainly: MDA-231 mammary cancer cell proliferation assay ([3H]thymidine incorporation). Format: cell-based, human. On the procedure:
as §1, §2, §3
After incubation, the number of cells and the rate of cell proliferation were estimated by the incorporation of [^3H]thymidine incorporation into cellular DNA, as described in U.S. Pat. No. 5,827,900. Cell growth was also measured by direct cell counting with a Coulter counter after trypsinization and dilution in Isotone-II (Coulter Electronics, Luton, England). A good correlation was found between the two methods. […]

In assay [6] the test system is rodent models (rat colon and oral carcinogenesis). To be noted: dietary administration; cited from earlier work.
[7] abbreviates: high, non-physiological carotenoid concentrations, about one order of magnitude greater than physiological (FIG. 6, panel B).
Setting [8] is: single high concentration (40 μM), after one day of incubation (FIG. 1, panel B).
Where [9] appears, read: lycopene at 3 to 5 μM, three days in culture (FIG. 2).
Where [10] appears, read: lycopene at 3 to 5 μM, IGF-1 30 nM (FIG. 3).

Take `CC(C)=CCC/C(C)=C/CC/C(C)=C/CC/C(C)=C/C=C/C=C(\C)CC/C=C(\C)CC/C=C(\C)CCC=C(C)C` [phytoene]: the phytoestrogen-induced cell proliferation entry in assay [1] (setting [7]) was “effective in significantly inhibiting”. The genistein-induced cell proliferation result in assay [2] is on record as “effective inhibitors”.

Consider `O=c1c(-c2ccc(O)cc2)coc2cc(O)cc(O)c12` [genistein, reference compound], for which, in assay [1] (genistein plus IGF-1 30 nM, compared to genistein only (FIG. 3, panel A)), the “stimulatory effect of genistein in the presence of IGF-I” value is reported as “significantly increases the cell proliferation rate; also recorded: further augmented”. For the same compound, the “effect on proliferation over the concentration range” value in assay [1] (stimulating at low, inhibiting at high concentrations (FIG. 2, panel A)) is “biphasic effects on proliferation”. Besides, the cell proliferation result in assay [3] is recorded as “induce cell proliferation”; in assay [4], “not in estrogen receptor negative”; in assay [2] (40 μM, by the second day in culture (FIG. 1, panel B)), “inhibitory effects”; in assay [2] (setting [8]), “significantly increases cell proliferation; also recorded: stimulated cell proliferation”. Besides, the “cell proliferation ([3H]thymidine incorporation into DNA)” value in assay [2] is listed as “significant increase in cell proliferation rate; also recorded: stimulated cell proliferation”. The “inhibition of cell proliferation” value in assay [2] is “inhibited cell proliferation”. Moreover, the “effect on endometrial cancer cell growth over the concentration range” value in assay [2] is “biphasic effects on proliferation”.

For the compound `CC(C)=CCC/C(C)=C/C=C/C(C)=C/C=C/C(C)=C/C=C/C=C(C)/C=C/C=C(C)/C=C/C=C(\C)CCC=C(C)C` [lycopene], the phytoestrogen-induced cell proliferation entry in assay [1] (setting [7]) is “effective in significantly inhibiting”; in assay [1] (low (physiological) concentrations: lycopene 0.4 μM, phytoene and phytofluene mixture 6 μM (FIG. 6, panel A)), “do not significantly affect”. Also, the basal growth entry in assay [1] (setting [9]) and in assay [2] (setting [9]) was “significantly inhibited” throughout. The estradiol-induced growth entry in assay [1] (setting [9]) and in assay [2] (setting [9]) was “significantly inhibited” each time. Also, the “IGF stimulation of cell proliferation (IGF-1 and genistein)” value in assay [1] (setting [10]) was “inhibits the cell proliferation; also recorded: inhibits IGF stimulation”. Further, the genistein-induced growth result in assay [1] (lycopene at 3 to 5 MM, three days in culture (FIG. 2)) was “substantially inhibited; also recorded: significantly inhibited”; in assay [2] (setting [9]) it was “substantially inhibited; also recorded: significantly inhibited”. Further, in assay [5] (setting [10]), the “IGF stimulation of cell proliferation” value was “inhibits IGF stimulation”. For the same compound, in assay [5] (setting [10]), the “cell proliferation relative to controls” value is listed as “reduced to levels less than that of controls”. For the same compound, the “estradiol-induced cell proliferation, dose dependence” value in assay [2] (estradiol at 10 nM, various lycopene concentrations, lowest 0.9 μM (FIG. 5)) is “inhibits, in a dose dependent manner; also recorded: effective in inhibiting”. The “genistein-induced cell proliferation, dose dependence” value in assay [2] (genistein at 1 μM, various lycopene concentrations, lowest 0.9 μM (FIG. 5)) is given as “inhibits, in a dose dependent manner; also recorded: effective in inhibiting”. Also, the genistein-induced cell proliferation result in assay [2] was “effective inhibitors; also recorded: effectively inhibited”.

With `O=c1oc2cc(O)ccc2c2oc3cc(O)ccc3c12` [counestrol], the cell proliferation result in assay [3] is “induce cell proliferation”; in assay [4] it was “not in estrogen receptor negative”.

Regarding `O=c1c(O)c(-c2ccc(O)cc2)oc2cc(O)cc(O)c12` [kaempferl], the figures for the cell proliferation entry in assay [3] and in assay [4] were “induce cell proliferation” and “not in estrogen receptor negative”, respectively.

Consider `O=c1c(-c2ccc(O)cc2)coc2cc(O)ccc12` [daidzein, reference compound], for which, in assay [2], the “cell proliferation ([3H]thymidine incorporation into DNA)” value was “significant increase in cell proliferation rate; also recorded: stimulated cell proliferation”, the “inhibition of cell proliferation” value was “not” and the “effect on endometrial cancer cell growth over the concentration range” value is “only stimulatory”. Also, in assay [2] (setting [8]), the cell proliferation result is given as “significantly increases cell proliferation; also recorded: stimulated cell proliferation”.

For the compound `O=c1cc(-c2ccc(O)c(O)c2)oc2cc(O)cc(O)c12` [luiolin], the cell proliferation entry is listed as “induce cell proliferation” in assay [3] and “not in estrogen receptor negative” in assay [4].

Turning to `COc1ccc(-c2coc3cc(O)cc(O)c3c2=O)cc1` [biochanin A], the cell proliferation result in assay [3] is “induce cell proliferation”; in assay [4], “not in estrogen receptor negative”.

On to “IGF-1: Human recombinant IGF-1 purchased from GroPep”, for which the cell growth result in assay [1] (IGF-1 30 nM (FIG. 3, panel A)) was “significantly stimulates cell growth”; in assay [5] (IGF-1 30 nM (FIG. 3, panel B)), “significantly stimulates cell growth”.

In the case of `CC1=C(/C=C/C(C)=C/C=C/C(C)=C/C=C/C=C(C)/C=C/C=C(C)/C=C/C2=C(C)CCCC2(C)C)C(C)(C)CCC1` [beta-carotene], the genistein-induced cell proliferation entry in assay [2] is listed as “effective inhibitors; also recorded: effectively inhibited”.

Consider `CC1=C(/C=C/C(C)=C/C=C/C(C)=C/C=C/C=C(C)/C=C/C=C(C)/C=C/C2=C(C)C(=O)[C@@H](O)CC2(C)C)C(C)(C)C[C@H](O)C1=O` [astaxanthin], for which, in assay [6], the “anti-tumorigenic effects in vivo” value is “anti-tumorigenic effects”. Moreover, in assay [2], the genistein-induced cell proliferation entry was “effective inhibitors; also recorded: effectively inhibited”.
